Laboratory results as given in ChEMBL document CHEMBL3091275, “Oxime-based inhibitors of glucose transporter 1 displaying antiproliferative effects in cancer cells” (Bioorg Med Chem Lett, 2013).
The source made the active and inactive calls. The calls are words filed in the database; no cut-off is given here.

Assays:
[1] = target: T1, Solute carrier family 2, facilitated glucose transporter member 1 (Homo sapiens) (UniProt P11166); assay: Inhibition of GLUT1 in human H1299 cells assessed as inhibition of 2-deoxy-D-[3H]-glucose uptake at 30 uM incubated for 15 mins prior to 2-deoxy-D-[3H]-glucose addition measured after 30 mins by liquid scintillation counting analysis; type: cell-based
T1 sequence (whole entry): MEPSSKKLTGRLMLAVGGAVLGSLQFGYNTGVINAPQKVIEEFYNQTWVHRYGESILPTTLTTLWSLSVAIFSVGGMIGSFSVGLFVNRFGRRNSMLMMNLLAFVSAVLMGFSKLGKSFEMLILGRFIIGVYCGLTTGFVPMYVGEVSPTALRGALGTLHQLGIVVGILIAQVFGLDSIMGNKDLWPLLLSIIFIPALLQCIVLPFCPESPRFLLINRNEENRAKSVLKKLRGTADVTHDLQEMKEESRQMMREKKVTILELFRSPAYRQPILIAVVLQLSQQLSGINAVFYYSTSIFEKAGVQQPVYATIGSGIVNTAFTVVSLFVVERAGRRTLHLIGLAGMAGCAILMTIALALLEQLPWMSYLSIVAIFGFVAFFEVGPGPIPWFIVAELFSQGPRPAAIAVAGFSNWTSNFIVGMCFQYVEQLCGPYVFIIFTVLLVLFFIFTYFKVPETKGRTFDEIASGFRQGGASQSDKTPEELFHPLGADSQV

NCI-H1299 = assay: Cytotoxicity against human H1299 cells assessed as growth inhibition at 30 uM after 48 hrs by MTT assay; type: functional, cell-based
Estrogen receptor beta = Estrogen receptor beta (Homo sapiens, UniProt Q92731); assay: Displacement of [3H]E2 from full-length human ERbeta after 18 to 24 hrs by radiometric assay
[2] = Cytotoxicity against human H1299 cells assessed as growth inhibition after 48 hrs by MTT assay; type: functional, cell-based; settings: NCI-H1299, 48 h
[3] = target: T2, Solute carrier family 2, facilitated glucose transporter member 1 (Homo sapiens, UniProt P11166); assay: Inhibition of GLUT1 in human H1299 cells assessed as inhibition of 2-deoxy-D-[3H]-glucose uptake incubated for 15 mins prior to 2-deoxy-D-[3H]-glucose addition measured after 30 mins by liquid scintillation counting analysis; type: cell-based
T2 sequence (P11166 whole entry): T1 sequence (whole entry)

Estrogen receptor = target: T3, Estrogen receptor (Homo sapiens, UniProt P03372); assay: Binding affinity to human estrogen receptor assessed as decrease in estradiol-dependent beta-galactosidase activity
T3 sequence (P03372 whole entry): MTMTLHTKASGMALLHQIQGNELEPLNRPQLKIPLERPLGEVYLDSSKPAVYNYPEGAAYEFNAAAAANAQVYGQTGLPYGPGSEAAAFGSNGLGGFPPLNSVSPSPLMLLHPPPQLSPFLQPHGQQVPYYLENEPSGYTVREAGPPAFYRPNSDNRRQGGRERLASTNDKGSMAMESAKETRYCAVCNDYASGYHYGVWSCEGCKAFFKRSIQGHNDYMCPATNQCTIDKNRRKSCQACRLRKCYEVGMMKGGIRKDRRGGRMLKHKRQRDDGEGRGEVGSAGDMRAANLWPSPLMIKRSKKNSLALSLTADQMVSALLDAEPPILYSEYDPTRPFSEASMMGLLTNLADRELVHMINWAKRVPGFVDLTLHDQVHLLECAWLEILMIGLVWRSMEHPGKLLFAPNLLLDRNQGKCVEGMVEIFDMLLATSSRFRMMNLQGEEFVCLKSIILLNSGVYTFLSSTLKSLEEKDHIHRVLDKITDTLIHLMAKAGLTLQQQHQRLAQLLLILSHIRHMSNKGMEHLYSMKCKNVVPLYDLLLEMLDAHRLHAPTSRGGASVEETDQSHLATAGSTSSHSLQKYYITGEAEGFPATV

Estrogen receptor beta, sequence (Q92731 whole entry): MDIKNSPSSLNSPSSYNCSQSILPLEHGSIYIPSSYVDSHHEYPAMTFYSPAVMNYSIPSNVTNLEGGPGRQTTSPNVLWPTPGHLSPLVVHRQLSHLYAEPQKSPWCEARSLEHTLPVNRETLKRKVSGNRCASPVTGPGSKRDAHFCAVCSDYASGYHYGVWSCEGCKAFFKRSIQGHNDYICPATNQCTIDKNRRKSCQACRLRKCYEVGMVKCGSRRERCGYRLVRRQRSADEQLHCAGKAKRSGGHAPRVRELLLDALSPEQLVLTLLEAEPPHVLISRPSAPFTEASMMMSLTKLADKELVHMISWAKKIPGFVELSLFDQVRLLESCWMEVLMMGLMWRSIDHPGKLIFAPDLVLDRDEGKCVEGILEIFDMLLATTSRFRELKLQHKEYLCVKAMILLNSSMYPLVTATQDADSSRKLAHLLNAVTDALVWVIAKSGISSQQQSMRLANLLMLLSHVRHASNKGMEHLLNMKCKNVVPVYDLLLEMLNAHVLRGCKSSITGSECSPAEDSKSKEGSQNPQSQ

inhibition [1] | IC50 [3] | SMILES | IC50 [2] | further results
Active |  | O/N=C/c1c(O)ccc(-c2ccc(O)c(F)c2)c1Cl |  | 
Active |  | O/N=C/c1cc(-c2ccc(O)c(F)c2)ccc1O |  | growth inhibition (GI) (NCI-H1299): Active; Kd (Estrogen receptor beta): 0.051 µM
 | 10.6 µM | C/C(=N\O)c1ccc(-c2ccc(O)cc2)c(Cl)c1O | 34.8 µM | 
Active |  | Cc1c(-c2ccc(O)cc2)ccc(/C=N/O)c1O |  | 
Active |  | COc1ccc(-c2ccc(/C=N/O)c(O)c2C)cc1 |  | 
 | 10.9 µM | O=C(Oc1cccc(F)c1OC(=O)c1cccc(O)c1)c1cccc(O)c1 | 20.4 µM | 
 | 15.5 µM | COc1ccc(-c2ccc(/C(C)=N/O)c(O)c2Cl)cc1F | 39.6 µM | 
Active |  | O/N=C/c1c(O)ccc(-c2ccc(O)cc2)c1Cl |  | 
Active |  | C/C(=N\O)c1ccc(-c2ccc(O)c(F)c2)c(Cl)c1O |  | 
Active |  | N#Cc1c(-c2ccc(O)cc2)ccc(/C=N/O)c1O |  | 
 | 23.4 µM | COc1ccc(-c2ccc(O)c(/C=N/O)c2)cc1 | 20.4 µM | 
Active |  | O/N=C/c1c(O)ccc(-c2ccc(O)cc2)c1-c1ccc(O)cc1 |  | 
Active |  | O/N=C/c1cc(-c2ccc(O)cc2)ccc1O |  | 
 | 8.5 µM | COc1ccc(-c2ccc(O)c(/C=N/O)c2)cc1F | 14.1 µM | 

SMILES | inhibition [1] | IC50 [3] | IC50 [2] | further results
O=C(CCc1ccc(O)cc1)c1c(O)cc(O)cc1O [PHLORETIN] |  | 21.4 µM | 54 µM | IC50 (Estrogen receptor): 0.3 µM
